Measured values taken from patent US20220397565A1, “METHODS OF SCREENING AND RELATED SYSTEMS” (RECURSION PHARMACEUTICALS, INC., priority 2021, published 2022).

How the values were obtained:
[1] = test system: Cells transduced with BacMam BRAF V600E; experiment: Morphological profiling of BacMam BRAF V600E transduced cells treated with test agents; format: cell-based; details: for side effect score versus disease score (position relative to the funnel, FIG. 10): cells expressing BRAF V600E, varying concentrations of compound, dot plot FIG. 10; for quantified reversal of the disease state (rescue of BRAF V600E overexpression phenotype): morphological profile of treated vs not treated BRAF V600E-transduced cells, 18 compounds tested
Source text: (§1) Morphological profiles may be generated by various methods. In an embodiment, morphologically profiling cells may comprise imaging relevant cells or tracking certain parameters or features of the cells. The tracking may be of staining intensities in one or more imaging channels, correlations between imaging channels, textural patterns, size and shape of cellular structures, geometric relationships between intracellular structures, geometric relationships between adjacent cells, or combinations thereof. Cellular features, such as 100 or more cellular features, 500 or more cellular features, or 1000 or more cellular features, may be tracked when morphologically profiling cells. Among various methods of determining these cellular features, they may be obtained by imaging cells with or without fluorescent or non-fluorescent stains or combinations thereof, and numeric features determined by using deep learning embeddings, hand-tuned feature extraction, or combinations thereof. Other than tracking the cellular features, the morphological profiling may include reducing the output of the cellular features using statistical modeling such as principal component analysis.
Pathogenic and non-pathogenic transduced cells were cultured then morphologically profiled. A heatmap of cosine similarities between all pairs of groups (or reagents), origined by method one were generated (FIG. 7). Shown are cells transduced with BacMam vectors having BRAF V600E, KRAS G12C, KRAS G12D, MFN1, MFN1T109A, CTNNB1B, EPAS1, SMO F460L, ALK, EGFR, and some of their nonsense counterparts. […] Cosine similarities between all pairs of feature vectors that were origin by method two in FIG. 7 (FIG. 8).
Cells transduced with BacMam BRAF V600E were treated with varying concentrations of 18 compounds which include dabrafenib and vemurafenib, which target BRAF, and ulixertinib and MEK162, which target downstream biology. […] The difference in features caused by transducing the cells with BRAF V600E was determined. The effect of compounds on those features was determined within the BRAF V600E-transduced cells and also the effects of compounds on features not related to transduction with BRAF V600E. […] The efficacy of test agents in reversing a disease state can be quantified. This is calculated based on morphological profiling of cells treated with a test agent compared to cells not treated with a test agent.

[2] = test system: EGFR-overexpressing cells; experiment: Morphological profiling of BacMam EGFR transduced cells treated with test agents; format: cell-based; details: cosine similarity, treated vs not-treated EGFR overexpressing cells, FIG. 9
Source text: as §1

SMILES | side effect score versus disease score (position relative to the funnel, FIG. 10) [1] | quantified reversal of the disease state (rescue of BRAF V600E overexpression phenotype) [1] | quantification of the reversal of the disease state (modulation of phenotypes of EGFR overexpressing cells) [2]
Cn1cnc2c(F)c(Nc3ccc(Br)cc3F)c(C(=O)NOCCO)cc21 [MEK162] | Separation from the funnel | some of the top test agents | 
CC(C)(C)c1nc(-c2cccc(NS(=O)(=O)c3c(F)cccc3F)c2F)c(-c2ccnc(N)n2)s1 [dabrafenib] | Separation from the funnel | some of the top test agents | 
COc1cc2ncnc(Nc3ccc(F)c(Cl)c3)c2cc1NC(=O)/C=C/CN1CCCCC1 [dacomitinib] |  |  | top two test agents
CC(C)Nc1cc(-c2c[nH]c(C(=O)N[C@H](CO)c3cccc(Cl)c3)c2)c(Cl)cn1 [ulixertinib] | Separation from the funnel | some of the top test agents | 
